Measured values: ChEMBL document CHEMBL5331122, “Structure-Activity Relationship Study of Antimicrobial Peptide PE2 Delivered Novel Linear Derivatives with Potential of Eradicating Biofilms and Low Incidence of Drug Resistance” (J Med Chem, 2023)
Activity calls are given as the source filed them. The rule behind the calls is not given here.

What was measured:
[1] = Acute toxicity in Kunming mouse assessed as survival rate at 20 to 60 mg/kg, ip measured after 4 hrs; type: organism-based; settings: in vivo, dose 20-60 mg/kg
[2] = Hemolytic activity in mouse red blood cells assessed as hemolysis at 256 microg/ml incubated for 1 hr relative to control; type: toxicity, cell-based, Erythrocyte; settings: red blood cells (erythrocytes), at 256 µg/mL, read-out: Activity
Escherichia coli [3] = assay: Synergistic antibacterial activity against Escherichia coli ATCC 25922 assessed as fractional inhibitory concentration index incubated for 18 hrs in presence of gentamycin by checkerboard assay; type: functional
Escherichia coli [4] = assay: Synergistic antibacterial activity against Escherichia coli ATCC 25922 assessed as fractional inhibitory concentration index incubated for 18 hrs in presence of PMB by checkerboard assay; type: functional
Staphylococcus aureus [5] = assay: Bactericidal activity against Staphylococcus aureus ATCC 25923 assessed as inhibition of bacterial growth at 2 times MIC measured at 120 mins by time-kill assay; type: functional, organism-based
Staphylococcus aureus [6] = assay: Bactericidal activity against Staphylococcus aureus ATCC 25923 assessed as inhibition of bacterial growth at 0.5 to 2 times MIC measured at 180 mins by time-kill assay; type: functional, organism-based
Escherichia coli [7] = assay: Synergistic antibacterial activity against Escherichia coli ATCC 25922 assessed as fractional inhibitory concentration index incubated for 18 hrs in presence of rifampicin by checkerboard assay; type: functional
Klebsiella pneumoniae [8] = assay: Antibacterial activity against Klebsiella pneumoniae ATCC 700603 infected in BALB/c mouse pneumonia model assessed as reduction in lung bacterial load at 5 to 10 mg/kg, ip measured at 4 to 12 hrs; type: functional, organism-based; settings: dose 5-10 mg/kg, time 4-12 hrs
Staphylococcus aureus [9] = assay: Bactericidal activity against Staphylococcus aureus ATCC 25923 assessed as inhibition of bacterial growth at 2 times MIC measured at 60 mins by time-kill assay; type: functional, organism-based
Escherichia coli [10] = assay: Bactericidal activity against Escherichia coli ATCC 25922 assessed as inhibition of bacterial growth at 0.5 to 2 times MIC measured at 90 mins by time-kill assay; type: functional, organism-based
Escherichia coli [11] = assay: Bactericidal activity against Escherichia coli ATCC 25922 assessed as inhibition of bacterial growth at 1 times MIC measured at 120 mins by time-kill assay; type: functional, organism-based
Escherichia coli [12] = assay: Additive antibacterial activity against Escherichia coli ATCC 25922 assessed as bacterial growth inhibition incubated for 18 hrs in presence of rifampicin by checkerboard assay; type: functional, organism-based
Pseudomonas aeruginosa [13] = assay: Antimicrobial activity against Pseudomonas aeruginosa 119 assessed as inhibition of microbial growth incubated for 18 hrs by broth microdilution analysis; type: functional, organism-based; settings: Pseudomonas aeruginosa, 119, 18 h
Staphylococcus aureus [14] = assay: Antimicrobial activity against methicillin-resistant Staphylococcus aureus 936 assessed as inhibition of microbial growth incubated for 18 hrs by broth microdilution analysis; type: functional, organism-based; settings: Staphylococcus aureus, 936, 18 h
Staphylococcus aureus [15] = assay: Bactericidal activity against Staphylococcus aureus ATCC 25923 assessed as inhibition of bacterial growth at 2 times MIC measured at 30 mins by time-kill assay; type: functional, organism-based
Escherichia coli [16] = assay: Antimicrobial activity against Escherichia coli 850 assessed as inhibition of microbial growth incubated for 18 hrs by broth microdilution analysis; type: functional, organism-based; settings: Escherichia coli, 850, 18 h
Klebsiella pneumoniae [17] = assay: Antibacterial activity against Klebsiella pneumoniae ATCC 700603 infected in BALB/c mouse pneumonia model assessed as alveolar expansion at 10 mg/kg, ip measured at 4 to 12 hrs by hematoxylin and eosin staining based analysis; type: functional, organism-based; settings: time 4-12 hrs
Pseudomonas aeruginosa [18] = assay: Antimicrobial activity against Pseudomonas aeruginosa 124 assessed as inhibition of microbial growth incubated for 18 hrs by broth microdilution analysis; type: functional, organism-based; settings: Pseudomonas aeruginosa, 124, 18 h
Staphylococcus aureus [19] = assay: Bactericidal activity against Staphylococcus aureus ATCC 25923 assessed as inhibition of bacterial growth at 2 times MIC measured upto 360 mins by time-kill assay; type: functional, organism-based
Escherichia coli [20] = assay: Antimicrobial activity against Escherichia coli 804 assessed as inhibition of microbial growth incubated for 18 hrs by broth microdilution analysis; type: functional, organism-based; settings: Escherichia coli, 804, 18 h
Pseudomonas aeruginosa [21] = assay: Antimicrobial activity against Pseudomonas aeruginosa 86 assessed as inhibition of microbial growth incubated for 18 hrs by broth microdilution analysis; type: functional, organism-based; settings: Pseudomonas aeruginosa, 86, 18 h
Staphylococcus aureus [22] = assay: Antimicrobial activity against methicillin-resistant Staphylococcus aureus 54 assessed as inhibition of microbial growth incubated for 18 hrs by broth microdilution analysis; type: functional, organism-based; settings: Staphylococcus aureus, 54, 18 h
Staphylococcus aureus [23] = assay: Antimicrobial activity against methicillin-resistant Staphylococcus aureus 74 assessed as inhibition of microbial growth incubated for 18 hrs by broth microdilution analysis; type: functional, organism-based; settings: Staphylococcus aureus, 74, 18 h
Staphylococcus aureus [24] = assay: Antimicrobial activity against methicillin-resistant Staphylococcus aureus 48 assessed as inhibition of microbial growth incubated for 18 hrs by broth microdilution analysis; type: functional, organism-based; settings: Staphylococcus aureus, 48, 18 h
Klebsiella pneumoniae [25] = assay: Antibacterial activity against Klebsiella pneumoniae ATCC 700603 infected in BALB/c mouse pneumonia model assessed as reduction in infiltration of inflammatory cells at 10 mg/kg, ip measured at 4 to 12 hrs by hematoxylin and eosin staining based analysis; type: functional, organism-based; settings: time 4-12 hrs
Staphylococcus aureus [26] = assay: Antimicrobial activity against methicillin-resistant Staphylococcus aureus 52 assessed as inhibition of microbial growth incubated for 18 hrs by broth microdilution analysis; type: functional, organism-based; settings: Staphylococcus aureus, 52, 18 h
[27] = Acute toxicity in Kunming mouse assessed as survival rate at 20 to 80 mg/kg, ip measured after 4 hrs; type: organism-based; settings: in vivo, dose 20-80 mg/kg
Escherichia coli [28] = assay: Antimicrobial activity against Escherichia coli 780 assessed as inhibition of microbial growth incubated for 18 hrs by broth microdilution analysis; type: functional, organism-based; settings: Escherichia coli, 780, 18 h
Escherichia coli [29] = assay: Antimicrobial activity against Escherichia coli ATCC 25922 assessed as reduction in microbial growth measured for 18 hrs in presence of […] microg/ml LPS; type: functional, organism-based
[30] = Hemolytic activity in mouse red blood cells assessed as hemolysis at 128 microg/ml incubated for 1 hr relative to control; type: toxicity, cell-based, Erythrocyte; settings: red blood cells (erythrocytes), read-out: Activity

## CCCCCCC(=O)N[C@@H](CCN)C(=O)N[C@H](C(=O)N[C@@H](CCN)C(=O)N[C@H](Cc1ccccc1)C(=O)N[C@@H](CC(C)C)C(=O)N[C@@H](CCN)C(=O)N[C@@H](C(=O)N[C@@H](CC(C)C)C(=O)N[C@@H](Cc1ccc(O)cc1)C(N)=O)C(C)C)[C@@H](C)CC
[1]
  Activity: Toxic
[2]
  hemolysis at 1 h, 256 µg/mL: < 10%
Escherichia coli [3]
  fractional inhibitory concentration index (FICI): 0.5
Escherichia coli [4]
  fractional inhibitory concentration index (FICI): 0.312
Staphylococcus aureus [5]
  Activity: Active
Staphylococcus aureus [6]
  Activity: Active
Escherichia coli [7]
  fractional inhibitory concentration index (FICI): 0.312
Klebsiella pneumoniae [8]
  Activity: Active

## CC[C@H](C)[C@@H]1NC(=O)[C@H](CCN)NC(=O)C[C@@H](C(C)C)OC(=O)[C@H]([C@@H](C)O)NC(=O)[C@H](CC(C)C)NC(=O)[C@@H](C(C)C)NC(=O)[C@H](CCN)NC(=O)[C@H](CC(C)C)NC(=O)[C@@H](Cc2ccccc2)NC(=O)[C@H](CCN)NC1=O
Staphylococcus aureus [9]
  Activity: Active
Escherichia coli [10]
  Activity: Active
Escherichia coli [11]
  Activity: Active
Escherichia coli [12]
  Activity: Active

## CCCCCCCC(=O)N[C@@H](CCN)C(=O)N[C@H](C(=O)N[C@@H](CCN)C(=O)N[C@H](Cc1ccccc1)C(=O)N[C@@H](CC(C)C)C(=O)N[C@@H](CCN)C(=O)N[C@@H](C(=O)N[C@@H](CC(C)C)C(=O)N[C@@H](Cc1ccc(O)cc1)C(N)=O)C(C)C)[C@@H](C)CC
Pseudomonas aeruginosa [13]
  EC50: 2.31 µg/mL
Staphylococcus aureus [14]
  EC50: 6.12 µg/mL
Staphylococcus aureus [15]
  Activity: Active
Escherichia coli [16]
  EC50: 2.42 µg/mL
Klebsiella pneumoniae [17]
  Activity: Active
Pseudomonas aeruginosa [18]
  EC50: 2.76 µg/mL
Escherichia coli [12]
  Activity: Active
Staphylococcus aureus [19]
  Activity: Active
Escherichia coli [20]
  EC50: 2.36 µg/mL
Pseudomonas aeruginosa [21]
  EC50: 2.08 µg/mL
Staphylococcus aureus [22]
  EC50: 4.33 µg/mL
Staphylococcus aureus [23]
  EC50: 5.1 µg/mL
Staphylococcus aureus [24]
  EC50: 5.48 µg/mL
Klebsiella pneumoniae [25]
  Activity: Active
Staphylococcus aureus [26]
  EC50: 4.46 µg/mL
[27]
  Activity: Toxic
Escherichia coli [28]
  EC50: 2.55 µg/mL
Escherichia coli [29]
  Activity: Active
Klebsiella pneumoniae [8]
  Activity: Active
[30]
  hemolysis at 1 h, 128 µg/mL: 10%
